These compounds were tested against T1, Ornithine decarboxylase (Rattus norvegicus, UniProt P09057) (assay: Inhibition of liver Ornithine decarboxylase in thioacetamide-treated rat).
T1 sequence (P09057 whole entry): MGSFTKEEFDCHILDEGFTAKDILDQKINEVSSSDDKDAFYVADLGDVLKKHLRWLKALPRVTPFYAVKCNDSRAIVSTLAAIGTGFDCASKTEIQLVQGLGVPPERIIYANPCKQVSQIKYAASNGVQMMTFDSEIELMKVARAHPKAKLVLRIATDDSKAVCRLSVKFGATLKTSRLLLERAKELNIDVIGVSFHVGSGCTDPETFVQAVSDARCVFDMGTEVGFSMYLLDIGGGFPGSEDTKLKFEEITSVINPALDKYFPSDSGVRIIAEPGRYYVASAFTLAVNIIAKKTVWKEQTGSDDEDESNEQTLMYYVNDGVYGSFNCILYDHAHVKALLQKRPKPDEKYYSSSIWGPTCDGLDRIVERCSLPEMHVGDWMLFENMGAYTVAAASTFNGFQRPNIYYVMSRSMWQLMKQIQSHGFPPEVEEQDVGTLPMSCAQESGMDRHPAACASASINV

SMILES | Ki
CC(CN)C(C)(C)CN (stereo unspecified) | > 10.5 mM
CC(C)(CN)CCN | > 10 mM
CC(C)(CN)C(C)(C)CN | > 11 mM
CC(C)(CN)C(C)(CN)C(=O)O (stereo unspecified) | > 11 mM
CC(CN)C(C)(CN)C(=O)O (stereo unspecified) | 1.65 mM
CC(C)(CN)C(CN)C(=O)O (stereo unspecified) | > 11 mM
CC(CN)(CCN)C(=O)O (stereo unspecified) | > 11 mM
NCCC(CN)C(=O)O (stereo unspecified) | 1.79 mM
CC(CN)C(CN)C(=O)O (stereo unspecified) | 0.72 mM
CC(CN)C(C)CN (stereo unspecified) | 6.1 mM
NCCCCN [PUTRESCINE] | 3.5 mM

Reference: ChEMBL document CHEMBL1128697, “Synthesis of isoornithines and methylputrescines. An evaluation of their inhibitory effects on ornithine decarboxylase” (J Med Chem, 1995)
